# Literature values, collected in patent US9109008B2, “Tubulysin compounds, methods of making and use” (priority 2013, dated 2015).
# Test system: cancer cell lines
# Conditions: Kaur et al. 2006
structure (smiles),measurement,value
CC[C@H](C)[C@H](NC(=O)[C@H]1CCCCN1C)C(=O)N(COC(=O)CC(C)C)[C@H](C[C@@H](OC(C)=O)c1nc(C(=O)N[C@@H](Cc2ccc(O)cc2)C[C@H](C)C(=O)O)cs1)C(C)C [tubulysin A],antiproliferative potency compared with other antimitotic agents,more potent than other antimitotic agents such as paclitaxel and vinblastine
